Results taken from US10668033B2, “Modulators of the prostacyclin (PGI2) receptor useful for the treatment of disorders related thereto” (Arena Pharmaceuticals, Inc., priority 2008, dated 2020).

Assays:
[1] = Plasma profile in rats after 10 mg/kg oral dose of Compound 22 sodium salt; format: in vivo; conditions: rat, after a 10 mg/kg oral dose of Compound 22 (sodium salt, FIG. 25), male rats
[2] = Excipient compatibility (stability) study; format: physicochemical; conditions: four weeks in a glass vial at 50° C.
Experimental: Compound 22 was tested for stability in three of the excipients.

[3] = Pharmacokinetics in rats after oral administration of Compound 99; format: in vivo, Sprague-Dawley rat; conditions: plasma analyte after 1.25 mg/kg oral dose of Compound 99, male rats
Experimental: Blood samples were obtained from 0.100 to 21.0 h post-dose for plasma drug concentration measurements. […] Pharmacokinetic parameters were estimated using non-compartmental pharmacokinetic analysis.

[4] = test system: MCT-induced pulmonary arterial hypertension; assay: Rat monocrotaline (MCT) model of pulmonary arterial hypertension; format: in vivo; conditions: 30 mg/kg oral gavage twice a day for 21 days; 60 mg/kg MCT s.c.; male Wistar rats
Experimental: Male Wistar rats (100-150 g at start of study) (Charles River Laboratories, Wilmington, Mass.) were housed two per cage and maintained in a humidity—(40-60%) and temperature—(68-72° F.) controlled facility on a 12 hr:12 hr light/dark cycle (lights on at 6:30 am) with free access to food (Harlan Teklad, Orange Calif., Rodent Diet 8604) and water. Rats were allowed one week of habituation to the animal facility before testing.
The rat monocrotaline (MCT) model is a standard and well-accepted model of pulmonary arterial hypertension. MCT induces acute pulmonary endothelial damage associated with pulmonary vascular inflammation. […]
Rats were randomly given a single subcutaneous injection of either 60 mg/kg MCT (Sigma, St. Louis, Mo.) or 0.9% saline (sham) and assigned to receive oral administration of 20% hydroxypropyl beta-cyclodextrin (vehicle) or test compound (30 mg/kg; FIGS. 7 and 8). […] Heart chamber weights were measured on Day 22. […] The ratio of right ventricular (RV) weight to left ventricle plus septum (LV+S) weight (this ratio is indicated as “RV/(LV+S)” in FIGS. 7 and 8) was calculated as an index of the hypertrophic response to the induced pulmonary arterial hypertension and, as such, as an index of a test compound's therapeutic efficacy for pulmonary arterial hypertension.

[5] = Excipient solubility study
Experimental: The solubility of 2-(((1r,4r)-4-(((4-chlorophenyl)(phenyl)carbamoyloxy)methyl)cyclohexyl)methoxy)acetic acid (Compound 22) and sodium 2-(((1r,4r)-4-(((4-chlorophenyl)(phenyl)carbamoyloxy)methyl)cyclohexyl)methoxy)acetate (Compound 22 sodium salt) in various excipients was measured.

[6] = Dynamic vapor sorption (DVS) hygroscopicity; format: physicochemical; conditions: at 90% relative humidity; listed as Form 1 of the sodium salt of Compound 22
Experimental: Hygroscopicity was measured using a dynamic moisture-sorption analyzer, VTI Corporation, SGA-100. The sample was placed as-is in a tared sample holder on the VTI balance. A drying step was run at 40° C. and ˜1% RH for 60 to 120 min. The isotherm conditions are 25° C. with steps of 20% RH from 10% RH up to 90% RH and back to 10% RH. The weight was checked every 2 min. Percent weight change of <0.01% in 20 min or 2 h, whichever occurs first, is required before continuing to the next step.

## O=C(O)COC[C@H]1CC[C@H](COC(=O)N(c2ccccc2)c2ccc(Cl)cc2)CC1 [Compound 22, 2-(((1r,4r)-4-(((4-chlorophenyl)(phenyl)carbamoyloxy)methyl)cyclohexyl)methoxy)acetic acid]
[1]
  Tmax: 1.5 h
[2]; Cremophor RH 40
  stability in solution: no observable degradation or API assay loss
[2]; Imwitor 742
  stability in solution: no observable degradation or API assay loss
[2]; TPGS 1000
  stability in solution: no observable degradation or API assay loss
[3]; Sprague-Dawley, rat
  AUC(0-t): 935 ng·h/mL
  Cmax: 214 ng/mL
[3]; Sprague-Dawley, rat, read-out: terminal phase half-life (T1/2) (converted)
  half-life: 3.51 h
[3]
  time of Cmax: 2.67 h
[4]
  hypertrophic response, RV/(LV+S): inhibited the hypertrophic response

## O=C([O-])COC[C@H]1CC[C@H](COC(=O)N(c2ccccc2)c2ccc(Cl)cc2)CC1.[Na+] [Sodium Salt of Compound 22, sodium 2-(((1r,4r)-4-(((4-chlorophenyl)(phenyl)carbamoyloxy)methyl)cyclohexyl)methoxy)acetate]
[5]; Corn Oil
  Solubility: <100 µg/mL
[5]; Cremophor RH 40
  Solubility: 7820 µg/mL
[5]; Gelucire 44/14
  Solubility: 1610 µg/mL
[5]; Gelucire 50/13
  Solubility: <10000 µg/mL
[5]; Imwitor 742
  Solubility: 16200 µg/mL
[5]; Labrasol
  Solubility: 12980 µg/mL
[5]; Lauroglycol 90
  Solubility: 260 µg/mL
[5]; PEG400
  Solubility: 4850 µg/mL
[5]; PEG6000
  Solubility: <10000 µg/mL
[5]; Safflower oil
  Solubility: <100 µg/mL
[5]; TPGS 1000
  Solubility: 2550 µg/mL
[6]
  DVS absorption: less than 0.25%
